The nature of this assay: Displacement of [125I]Bolton-Hunter-CCK-8 from guinea pig cortex Cholecystokinin type B receptor.
As to `CN(C(=O)[C@H](CC(=O)O)NNC[C@H](CCCCNC(=O)C=Cc1ccc(O)cc1)NC(=O)[C@H](Cc1c[nH]c2ccccc12)NC(=O)OC(C)(C)C)[C@@H](Cc1ccccc1)C(N)=O` [3-(N'-{(S)-2-[(S)-2-tert-Butoxycarbonylamino-3-(1H-indol-3-yl)-propionylamino]-6-[(Z)-3-(4-hydroxy-phenyl)-acryloylamino]-hexyl}-hydrazino)-N-((S)-1-carbamoyl-2-phenyl-ethyl)-N-methyl-succinamic acid], the IC50 (usually the concentration that inhibits the measured activity by half) was 5 µM. For the compound `CC(C)(C)OC(=O)N[C@@H](Cc1c[nH]c2ccccc12)C(=O)N[C@@H](CCCCNC(=O)C=Cc1ccc(O)cc1)CNN[C@@H](CC(=O)O)C(=O)N[C@@H](Cc1ccccc1)C(N)=O` [3-(N'-{(S)-2-[(S)-2-tert-Butoxycarbonylamino-3-(1H-indol-3-yl)-propionylamino]-6-[(Z)-3-(4-hydroxy-phenyl)-acryloylamino]-hexyl}-hydrazino)-N-((S)-1-carbamoyl-2-phenyl-ethyl)-succinamic acid], the half-inhibitory concentration (IC50) came out at 3.8 µM. For `Cc1ccccc1NC(=O)NCCCC[C@H](NC(=O)[C@H](Cc1c[nH]c2ccccc12)NC(=O)OC(C)(C)C)C(=O)N[C@H](CNN[C@@H](Cc1ccccc1)C(N)=O)CC(=O)O` [3-{2-[2-tert-Butoxycarbonylamino-3-(1H-indol-3-yl)-propionylamino]-6-[(S)-3-((1S,2S)-o-tolyl)-ureido]-hexanoylamino}-4-[N'-((S)-1-carbamoyl-2-phenyl-ethyl)-hydrazino]-butyric acid] the value was more than 10 µM; for `Cc1ccccc1NC(=O)NCCCC[C@H](NNC[C@H](Cc1c[nH]c2ccccc12)NC(=O)OC(C)(C)C)C(=O)N[C@@H](CC(=O)O)C(=O)N[C@@H](Cc1ccccc1)C(N)=O` [(S)-3-[(S)-2-[N'-((S)-2-tert-Butoxycarbonylamino-3-1H-indol-3-yl-propyl)-hydrazino]-6-(3-o-tolyl-ureido)-hexanoylamino]-N-((S)-1-carbamoyl-2-phenyl-ethyl)-succinamic acid], 2.5 µM. As to `CC(C)(C)OC(=O)N[C@@H](Cc1c[nH]c2ccccc12)C(=O)N[C@@H](CCCCNC(=O)C=Cc1ccc(O)cc1)C(=O)N[C@H](CNN[C@@H](Cc1ccccc1)C(N)=O)CC(=O)O` [(S)-3-{2-[2-tert-Butoxycarbonylamino-3-(1H-indol-3-yl)-propionylamino]-6-[(S)-3-((S)-4-hydroxy-phenyl)-acryloylamino]-hexanoylamino}-4-[N'-((S)-1-carbamoyl-2-phenyl-ethyl)-hydrazino]-butyric acid], the IC50 came to 7 µM. Regarding `Cc1ccccc1NC(=O)NCCCC[C@@H](CNN[C@@H](CC(=O)O)C(=O)N(C)[C@@H](Cc1ccccc1)C(N)=O)NC(=O)[C@H](Cc1c[nH]c2ccccc12)NC(=O)OC(C)(C)C` [(S)-3-{N'-[2-((3aS,7S)-2-tert-Butoxycarbonylamino-3-1H-indol-3-yl-propionylamino)-6-(3-o-tolyl-ureido)-hexyl]-hydrazino}-N-((S)-1-carbamoyl-2-phenyl-ethyl)-N-methyl-succinamic acid], the IC50 is more than 10 µM.

Source of the values: BindingDB's records for doi:10.1016/S0960-894X(00)80680-0 (1993).
